Data published in paper PMC9352230 (ACS Omega, 2022).

Columns and labels:
[1] = test system: MCF7 (human breast cancer cell line); experiment: MTT cytotoxicity assay, MCF7; format: cell-based; details: MCF7, 24 h, read-out: MCF7 (% inhibition ±SD)
ENPP1 = target: T1, ENPP1 (Homo sapiens, UniProt P22413); experiment: ENPP1 enzyme inhibition assay; format: biochemical; details: for inhibition at 100 µM: read-out: ENPP1 % inhibition ± SD
T1 sequence (P22413 1-925): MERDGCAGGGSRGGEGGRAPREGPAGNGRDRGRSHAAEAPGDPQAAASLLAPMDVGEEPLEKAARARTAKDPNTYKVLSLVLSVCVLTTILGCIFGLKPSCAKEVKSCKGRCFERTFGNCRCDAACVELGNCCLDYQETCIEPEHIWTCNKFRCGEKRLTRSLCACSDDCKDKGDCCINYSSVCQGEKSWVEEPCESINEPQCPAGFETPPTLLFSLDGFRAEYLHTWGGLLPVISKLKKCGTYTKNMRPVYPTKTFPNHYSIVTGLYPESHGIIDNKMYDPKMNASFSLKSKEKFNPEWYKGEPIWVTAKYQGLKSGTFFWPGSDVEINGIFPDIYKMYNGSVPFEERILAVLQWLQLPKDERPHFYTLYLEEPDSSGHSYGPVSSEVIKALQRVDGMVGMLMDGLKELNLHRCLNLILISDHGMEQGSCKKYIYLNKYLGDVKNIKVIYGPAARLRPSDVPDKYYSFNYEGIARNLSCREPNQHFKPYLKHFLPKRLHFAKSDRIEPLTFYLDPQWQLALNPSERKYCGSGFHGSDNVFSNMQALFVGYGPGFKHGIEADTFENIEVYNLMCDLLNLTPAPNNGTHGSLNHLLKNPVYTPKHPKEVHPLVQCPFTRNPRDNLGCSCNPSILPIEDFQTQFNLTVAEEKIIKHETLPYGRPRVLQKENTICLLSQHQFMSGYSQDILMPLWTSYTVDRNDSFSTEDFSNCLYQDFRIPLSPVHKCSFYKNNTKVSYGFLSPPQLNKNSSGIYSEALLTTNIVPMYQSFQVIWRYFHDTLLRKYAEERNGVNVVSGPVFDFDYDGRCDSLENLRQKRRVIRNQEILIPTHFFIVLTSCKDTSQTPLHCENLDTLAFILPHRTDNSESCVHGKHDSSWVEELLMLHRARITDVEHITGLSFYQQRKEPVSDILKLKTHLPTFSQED

ENPP3 = target: T2, ENPP3 (Homo sapiens, UniProt O14638); experiment: ENPP3 enzyme inhibition assay; format: biochemical; details: for inhibition at 100 µM: read-out: ENPP3 % inhibition ± SD
T2 sequence (O14638 1-875): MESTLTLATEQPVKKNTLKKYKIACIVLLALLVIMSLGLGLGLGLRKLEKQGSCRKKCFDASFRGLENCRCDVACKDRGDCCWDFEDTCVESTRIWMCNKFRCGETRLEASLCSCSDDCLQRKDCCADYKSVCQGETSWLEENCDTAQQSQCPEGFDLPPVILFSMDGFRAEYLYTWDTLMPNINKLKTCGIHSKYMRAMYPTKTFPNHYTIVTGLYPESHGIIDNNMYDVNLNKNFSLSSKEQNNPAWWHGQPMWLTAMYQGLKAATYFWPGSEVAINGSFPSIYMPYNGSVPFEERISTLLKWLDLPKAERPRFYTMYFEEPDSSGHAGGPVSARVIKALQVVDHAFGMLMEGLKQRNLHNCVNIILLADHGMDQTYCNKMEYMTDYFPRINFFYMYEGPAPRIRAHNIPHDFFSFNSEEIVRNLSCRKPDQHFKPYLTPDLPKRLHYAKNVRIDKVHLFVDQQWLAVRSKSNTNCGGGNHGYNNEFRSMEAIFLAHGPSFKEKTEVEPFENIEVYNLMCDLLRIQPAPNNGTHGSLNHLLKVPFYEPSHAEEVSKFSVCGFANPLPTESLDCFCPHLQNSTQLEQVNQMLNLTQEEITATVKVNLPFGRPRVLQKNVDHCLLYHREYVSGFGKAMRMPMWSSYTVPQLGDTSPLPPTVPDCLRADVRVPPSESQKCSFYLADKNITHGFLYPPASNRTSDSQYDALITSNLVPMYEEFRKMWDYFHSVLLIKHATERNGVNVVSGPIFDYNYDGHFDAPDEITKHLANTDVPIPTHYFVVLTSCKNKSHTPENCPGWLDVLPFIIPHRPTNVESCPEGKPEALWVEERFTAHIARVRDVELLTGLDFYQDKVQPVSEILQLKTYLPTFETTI

[2] = test system: HEK293 (human embryonic kidney cell line); experiment: MTT cytotoxicity assay, HEK293; format: cell-based; details: Homo sapiens, HEK293, 24 h, read-out: HEK293 (% inhibition ±SD)

IC50 (ENPP1)	IC50 (ENPP3)	inhibition at 100 µM (ENPP1)	inhibition at 100 µM (ENPP3)	Structure (SMILES)	inhibition at 100 µM [1]	inhibition at 100 µM [2]
–	–	–	–	COc1cccc2c1C(=O)c1c(O)c3c(c(O)c1C2=O)C[C@@](O)(C(=O)CO)C[C@@H]3O[C@H]1C[C@H](N)[C@H](O)[C@H](C)O1 [doxorubicin, reference compound]	88.8 ± 2.74%	–
900 ± 160 nM	4160 ± 220 nM	–	–	CC1(C(=O)Nc2ccc(OS(=O)(=O)C(F)(F)F)cc2)c2ccccc2-c2ccccc21 [7b, 4-(9-Methyl-9H-fluorene-9-carboxamido)phenyl Trifluoromethanesulfonate]	14.1 ± 0.63%	24.5 ± 1.16%
450 ± 70 nM	190 ± 20 nM	–	–	Cc1ccc(C(=O)Nc2ccc(OS(=O)(=O)c3ccc(OC(F)(F)F)cc3)cc2)cc1 [4g, 4-(4-Methylbenzamido)phenyl 4-(Trifluoromethoxy)benzenesulfonate]	11.7 ± 0.84%	3.2 ± 0.11%
–	820 ± 120 nM	44.8 ± 1.52%	–	Cc1ccc(C(=O)Nc2ccc(OS(=O)(=O)c3ccc(Cl)cc3)cc2)cc1 [4e, 4-(4-Methylbenzamido)phenyl 4-Chlorobenzenesulfonate]	24.2 ± 1.73%	8.3 ± 0.35%
–	150 ± 40 nM	41.4 ± 3.24%	–	O=C(Nc1ccc(OS(=O)(=O)c2ccc(OC(F)(F)F)cc2)cc1)c1ccccc1 [4t, 4-Benzamidophenyl 4-(trifluoromethoxy)benzenesulfonate]	29.6 ± 1.22%	8.6 ± 0.14%
8450 ± 250 nM	–	–	42.1 ± 2.44%	CC1(C(=O)Nc2ccc(OS(=O)(=O)c3ccccc3)cc2)c2ccccc2-c2ccccc21 [7f, 4-(9-Methyl-9H-fluorene-9-carboxamido)phenyl Benzenesulfonate]	5.6 ± 1.11%	6.2 ± 1.17%
–	–	26.2 ± 2.11%	17 ± 3.24%	Cc1ccc(C(=O)Nc2ccc(OS(=O)(=O)c3ccc(C)cc3)cc2)cc1 [4a, 4-(4-Methylbenzamido)phenyl 4-Methylbenzenesulfonate]	1.1 ± 0.12%	5.3 ± 0.81%
1710 ± 40 nM	2120 ± 80 nM	–	–	CCCc1ccc(S(=O)(=O)Oc2ccc(NC(=O)c3ccccc3)cc2)cc1 [4o, 4-Benzamidophenyl 4-Propylbenzenesulfonate]	63.2 ± 2.51%	12.6 ± 0.74%
–	29800 ± 2130 nM	45.2 ± 1.53%	–	Cc1ccc(C(=O)Nc2ccc(OS(=O)(=O)c3ccccc3)cc2)cc1 [4b, 4-(4-methylbenzamido)phenyl Benzenesulfonate]	7.4 ± 0.04%	6.4 ± 0.22%
130 ± 10 nM	–	–	46.7 ± 1.54%	Cc1ccc(C(=O)Nc2ccc(OS(=O)(=O)Cc3ccccc3)cc2)cc1 [4i, 4-(4-Methylbenzamido)phenyl Phenylmethanesulfonate]	5.7 ± 0.06%	11.2 ± 0.92%
3960 ± 120 nM	4120 ± 50 nM	–	–	O=C(Nc1ccc(OS(=O)(=O)Cc2ccccc2)cc1)c1ccccc1 [4n, 4-Benzamidophenyl Phenylmethanesulfonate]	7.3 ± 0.03%	5.8 ± 0.23%
–	160 ± 10 nM	9.2 ± 4.13%	–	CC1(C(=O)Nc2ccc(OS(C)(=O)=O)cc2)c2ccccc2-c2ccccc21 [7d, 4-(9-Methyl-9H-fluorene-9-carboxamido)phenyl Methanesulfonate]	0.2 ± 0.06%	5.5 ± 0.36%
150 ± 10 nM	3480 ± 340 nM	–	–	Cc1ccc(C(=O)Nc2ccc(OS(=O)(=O)c3ccccc3F)cc2)cc1 [4l, 4-(4-Methylbenzamido)phenyl 2-Fluorobenzenesulfonate]	0.5 ± 0.03%	17.4 ± 0.83%
820 ± 50 nM	–	–	22.6 ± 2.12%	COc1ccc(S(=O)(=O)Oc2ccc(NC(=O)c3ccccc3)cc2)cc1 [4m, 4-Benzamidophenyl 4-Methoxybenzenesulfonate]	4.1 ± 0.01%	2.3 ± 1.12%
810 ± 50 nM	–	–	28.2 ± 3.22%	CC1(C(=O)Nc2ccc(OS(=O)(=O)c3ccccc3F)cc2)c2ccccc2-c2ccccc21 [7a, 4-(9-Methyl-9H-fluorene-9-carboxamido)phenyl 2-Fluorobenzenesulfonate]	12.7 ± 0.62%	14.6 ± 1.12%
1730 ± 30 nM	–	–	27.1 ± 4.54%	Cc1ccc(C(=O)Nc2ccc(OS(=O)(=O)c3ccc(-c4ccccc4)cc3)cc2)cc1 [4h, 4-(4-Methylbenzamido)phenyl [1,1′-Biphenyl]-4-sulfonate]	9.1 ± 0.71%	4.8 ± 0.24%
7610 ± 20 nM	370 ± 80 nM	–	–	Cc1ccc(C(=O)Nc2ccc(OS(=O)(=O)c3ccc(F)cc3)cc2)cc1 [4k, 4-(4-Methylbenzamido)phenyl 4-Fluorobenzenesulfonate]	11.2 ± 0.52%	2.1 ± 1.22%
14400 ± 540 nM	4230 ± 380 nM	–	–	Cc1ccc(C(=O)Nc2ccc(OS(=O)(=O)c3ccc(I)cc3)cc2)cc1 [4c, 4-(4-methylbenzamido)phenyl 4-Iodobenzenesulfonate]	33.2 ± 1.32%	15.2 ± 0.83%
2010 ± 340 nM	530 ± 190 nM	–	–	O=C(Nc1ccc(OS(=O)(=O)c2ccc(I)cc2)cc1)c1ccccc1 [4r, 4-Benzamidophenyl 4-Iodobenzenesulfonate]	10.2 ± 0.86%	11.3 ± 0.71%
1510 ± 20 nM	–	–	33.5 ± 1.92%	O=C(Nc1ccc(OS(=O)(=O)c2ccc(-c3ccccc3)cc2)cc1)c1ccccc1 [4p, 4-Benzamidophenyl [1,1′-Biphenyl]-4-sulfonate]	8.4 ± 0.75%	4.3 ± 0.15%
5760 ± 570 nM	2950 ± 250 nM	–	–	O=C(Nc1ccc(OS(=O)(=O)c2ccc(F)cc2)cc1)c1ccccc1 [4s, 4-Benzamidophenyl 4-Fluorobenzenesulfonate]	2.1 ± 0.08%	20.6 ± 1.14%
500 ± 30 nM	6690 ± 1890 nM	–	–	CC1(C(=O)Nc2ccc(OS(=O)(=O)c3ccc(F)cc3)cc2)c2ccccc2-c2ccccc21 [7c, 4-(9-Methyl-9H-fluorene-9-carboxamido)phenyl 4-Fluorobenzenesulfonate]	12.4 ± 1.22%	9.2 ± 0.42%
180 ± 10 nM	–	–	45.7 ± 2.35%	COc1ccc(S(=O)(=O)Oc2ccc(NC(=O)c3ccc(C)cc3)cc2)cc1 [4d, 4-(4-Methylbenzamido)phenyl 4-Methoxybenzenesulfonate]	31.5 ± 2.43%	13.1 ± 0.73%
370 ± 30 nM	–	–	19.5 ± 3.53%	O=C(Nc1ccc(OS(=O)(=O)c2cccc3cccnc23)cc1)c1ccccc1 [4q, 4-Benzamidophenyl Quinoline-8-sulfonate]	11.2 ± 1.04%	4.6 ± 0.32%
–	–	–	8.4 ± 3.11%	CCCc1ccc(S(=O)(=O)Oc2ccc(NC(=O)c3ccc(C)cc3)cc2)cc1 [4f, 4-(4-Methylbenzamido)phenyl 4-Propylbenzenesulfonate]	25.7 ± 0.92%	4.2 ± 0.12%
